For orientation: boiling point means the temperature of boiling at a given pressure.

Data set [1] in a line: Visual appearance and odor. It is filed as physicochemical. An excerpt:
(§1) As a non-limiting example, the sanitizing formulation can include 52.25% TEG by weight, 1.00% PG by weight, and 46.75% water (e.g., deionized water) by weight. The properties of this particular example of the sanitizing formulation (and pure TEG as a comparative reference) is summarized in the table below

The nature of a further data set: PLTL-15 Odor Test. The data set is classed as physicochemical.
From the text: as §1

Data set [2] can be described thus: ASTM D4052 specific gravity. The data set is classed as physicochemical.
From the text: as §1

The nature of a further data set: ASTM D1120 boiling point. The data set is classed as physicochemical.
From the text: as §1

A short description of another data set: ASTM D93 flash point. It is filed as physicochemical.
From the text: as §1

Another data set in a line: ASTM D323 vapor pressure. The data set is classed as physicochemical. The conditions noted are these: @ 20° C.
From the text: as §1

Data set [3] in a line: ASTM D445 kinematic viscosity. The data set is classed as physicochemical.
From the text: as §1

A further data set can be described thus: ASTM D117 freeze point. The data set is classed as physicochemical.
From the text: as §1

For data set [4] the following is noted: cited from earlier work.

As to `OCCOCCOCCO` [Pure TEG, triethylene glycol], in data set [1], the “Appearance and Odor” value is reported as “Clear/Uniform”. In addition, the “Odor Test” value in “PLTL-15 Odor Test” is listed as “No Odor”. The “Specific Gravity @ 20° C.” value in data set [2] is listed as 1.12-1.13. In addition, in “ASTM D1120 boiling point”, the “Boiling Point (° C.)” value was 285° ° C. Besides, in “ASTM D93 flash point”, the “Flash Point (° C.)” value is listed as 157° ° C. For the same molecule, the “Vapor Pressure (psi)” value in “ASTM D323 vapor pressure” came to 0.0 psi @ 20 °C. Also, the “Viscosity, Kinematic @ 40° C.” value in [3] stood at 42.3 cSt. For the same molecule, the “Freeze Point ° C.” value in the data set “ASTM D117 freeze point” is recorded as −7.0° ° C. Moreover, in data set [4] (TEG alone, flammable liquid), the flash point is 157 °C. Further, the boiling point in [4] (at a pressure of 101.325 kPa) was 286.5 °C.
